Format in all cases: cell-based
Experiment [1] addresses T1, IKZF1 Ikaros (Homo sapiens, UniProt Q13422+Q96SW2). Nature of the experiment: Human Regulatory T Cell Degradation Assay (Ikaros). The note with it: human regulatory T cells, 20 h. On the procedure: Cryopreserved human regulatory T cells were thawed in RPMI+10% FBS+20 ng/mL IL-2. After being spun at 1200 rpm for 5 mins, the cells were resuspended in RPMI+10% FBS+20 ng/ml and rested at 37° C. with 5% CO2 for 3 hours. The cells were then plated at 40,000 cells/well in 40 μL RPMI+10% FBS+20 ng/mL human IL-2 in a 384 well cell culture plate prior to using acoustic dispensing technology (ECHO 555) for adding compounds of interest. Cell cultures were incubated for 20 hours at 37° C. and 5% CO2. In order to facilitate analysis, cell cultures were spun down at 1200 rpm for 5 minutes and the supernatant was discarded using an EL406 plate washer. After washing three times with […] PBS, cell pellets were resuspended in 50 μL of […] viability staining solution (Life Technologies, Cat #L34975) and incubated for 30 minutes on ice protected from light. Cells were washed three times with 70 μL PBS+0.5% BSA using an EL406 plate washer. After shaking the plate to dislodge the cell pellet, cells were resuspended in 50 μL of Fixation Buffer (eBioScience FoxP3 buffer set 00-5523-00) for 60 minutes at room temperature. After centrifuging and discarding the supernatant, cells were permeabilized with 50 μL of permeabilization buffer (eBioScience FoxP3 buffer set 00-5523-00) for 10 minutes at room temperature. Following permeabilization, cells were spun down and the supernatant was replaced with 30 μL fluorescently labelled antibodies against the intracellular targets Helios (Helios-APC [BioLegend, Cat #137222, 1:50])]), Aiolos, and Ikaros 1× Permeabilization buffer and staining reactions were incubated for 1 hour at room temperature; protected from light. Subsequently, […] Permeabilization buffer was added prior to centrifuging the cells and discarding the supernatant. Stained cells were resuspended in 30 μL of flow cytometry staining buffer (PBS+0.5% BSA) and analyzed using an Intellicyt Ique Plus flow cytometer.
Table B-1 lists the maximum observed degradation of the IKZF1 protein and IKZF2 protein as measured in the Human Regulatory T Cell Degradation assay. The results in Table B-1 were rounded to two digits. In the Human Regulatory T Cell Degradation assay, a value of 100% indicated no detectable protein remaining or complete degradation of the protein; and a value of 0% indicated no detectable degradation of the protein by the test compound.

Experiment [2] deals with T1, IKZF1 Ikaros. Nature of the experiment: Jurkat Cellular Degradation Assay (Ikaros). Also on record: endogenous in cells; host or cells: Jurkat cells. The note with it: Jurkat cells, 72 h. Here is the method:
(§1) Jurkat cells were plated at 80,000 cells/well in 40 μL RPMI+10% FBS in a 384-well cell culture plate prior to using acoustic dispensing technology for adding a compound of interest. Cell cultures were incubated for 72 h at 37° C. and 5% CO2. In order to facilitate analysis, cell cultures were spun down at 200 rpm for 5 min and the supernatant was discarded. After shaking the plate to dislodge the cell pellet, cells were resuspended in 50 μL of Fixation Buffer (eBioscience FoxP3 buffer set 00-5523-00) for 60 min at room temperature. After centrifuging and discarding the supernatant, cells were permeabilized with 50 μL of Permeabilization buffer (eBioscience FoxP3 buffer set 00-5523-00) for 10 min at room temperature. Following permeabilization, cells were spun down and the supernatant was replaced with 20 μL fluorescently labelled antibodies against Helios, Ikaros and Aiolos or corresponding Isotype controls in 1× Permeabilization buffer (Ikaros-Alexa488 [Biolegend, Cat #368408, 1:50], Helios-PE [CST, Cat #29360, 1:50], Aiolos-Alexa647 [Biolegend, Cat #371106 Biolegend, 1:25]) and staining reactions were incubated for 1 h at room temperature while protected from light. Subsequently, 30 μL of 1× Permeabilization buffer was added prior to centrifuging the cells and discarding the supernatant. Stained cells were resuspended in 25 μL of flow cytometry staining buffer [PBS+0.2% bovine serum albumin (BSA)] and analyzed using an Intellicyt Ique Plus flow cytometer.
(§2) Table A-1 lists the maximum observed degradation of the IKZF1 protein, IKZF2 protein, and IKZF3 protein as measured in the Jurkat Cellular Degradation assay. The results in Table A-I were rounded to two digits. In the Jurkat Cellular Degradation assay, a value of 100% indicated no detectable protein remaining or complete degradation of the protein; and a value of 0% indicated no detectable degradation of the protein by the test compound.

The next experiment addresses IKZF3 Aiolos (Homo sapiens, UniProt Q96SW2+Q9UKT9). Nature of the experiment: Jurkat Cellular Degradation Assay (Aiolos). Set-up: endogenous in cells; host or cells: Jurkat cells. Conditions: Jurkat cells, 72 h. On the procedure: as §1, §2
In a further experiment the target is IKZF2 Helios (Homo sapiens, UniProt Q96SW2+Q9UKS7). The experiment is described as follows: Human Regulatory T Cell Degradation Assay (Helios). Also on record: Human CD4+ T cells were isolated from fresh healthy leukopaks; endogenous in cells; host or cells: FACS-sorted primary human regulatory T cells from healthy leukopaks. The note with it: human regulatory T cells, 20 h. On the procedure:
Cryopreserved human regulatory T cells were thawed in RPMI+10% FBS+20 ng/mL IL-2. After being spun at 1200 rpm for 5 mins, the cells were resuspended in RPMI+10% FBS+20 ng/ml and rested at 37° C. with 5% CO2 for 3 hours. The cells were then plated at 40,000 cells/well in 40 μL RPMI+10% FBS+20 ng/mL human IL-2 in a 384 well cell culture plate prior to using acoustic dispensing technology (ECHO 555) for adding compounds of interest. Cell cultures were incubated for 20 hours at 37° C. and 5% CO2. In order to facilitate analysis, cell cultures were spun down at 1200 rpm for 5 minutes and the supernatant was discarded using an EL406 plate washer. After washing three times with […] PBS, cell pellets were resuspended in 50 μL of […] viability staining solution (Life Technologies, Cat #L34975) and incubated for 30 minutes on ice protected from light. Cells were washed three times with 70 μL PBS+0.5% BSA using an EL406 plate washer. […] Stained cells were resuspended in 30 μL of flow cytometry staining buffer (PBS+0.5% BSA) and analyzed using an Intellicyt Ique Plus flow cytometer.
Table B-1 lists the maximum observed degradation of the IKZF1 protein and IKZF2 protein as measured in the Human Regulatory T Cell Degradation assay. […]

Where [3] appears, read: concentration reducing protein level by 50% compared to DMSO alone.

Our source for the Dmax and DC50 values is US20260335299A1, “SUBSTITUTED OXOISOINDOLINYL PIPERIDINE-2,6-DIONE COMPOUND AS ANTICANCER AGENT” (BRISTOL-MYERS SQUIBB COMPANY, priority 2023, published 2026).

Molecules are shown by their SMILES.

T1 sequence (Q13422 whole entry): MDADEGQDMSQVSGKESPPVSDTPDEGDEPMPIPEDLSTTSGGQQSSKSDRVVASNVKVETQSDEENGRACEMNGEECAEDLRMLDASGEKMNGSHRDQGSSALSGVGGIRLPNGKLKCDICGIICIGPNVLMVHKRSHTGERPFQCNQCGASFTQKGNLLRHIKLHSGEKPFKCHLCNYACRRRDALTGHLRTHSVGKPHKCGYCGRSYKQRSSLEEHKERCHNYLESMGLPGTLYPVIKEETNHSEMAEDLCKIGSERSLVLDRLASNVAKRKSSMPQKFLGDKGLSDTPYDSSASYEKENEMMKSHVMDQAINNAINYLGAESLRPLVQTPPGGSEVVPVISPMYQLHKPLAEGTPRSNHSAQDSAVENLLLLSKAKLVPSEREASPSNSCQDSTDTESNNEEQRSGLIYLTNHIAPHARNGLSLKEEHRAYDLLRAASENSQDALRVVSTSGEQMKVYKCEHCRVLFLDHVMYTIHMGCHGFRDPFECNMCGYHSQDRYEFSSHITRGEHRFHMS
T1 sequence (Q96SW2 whole entry): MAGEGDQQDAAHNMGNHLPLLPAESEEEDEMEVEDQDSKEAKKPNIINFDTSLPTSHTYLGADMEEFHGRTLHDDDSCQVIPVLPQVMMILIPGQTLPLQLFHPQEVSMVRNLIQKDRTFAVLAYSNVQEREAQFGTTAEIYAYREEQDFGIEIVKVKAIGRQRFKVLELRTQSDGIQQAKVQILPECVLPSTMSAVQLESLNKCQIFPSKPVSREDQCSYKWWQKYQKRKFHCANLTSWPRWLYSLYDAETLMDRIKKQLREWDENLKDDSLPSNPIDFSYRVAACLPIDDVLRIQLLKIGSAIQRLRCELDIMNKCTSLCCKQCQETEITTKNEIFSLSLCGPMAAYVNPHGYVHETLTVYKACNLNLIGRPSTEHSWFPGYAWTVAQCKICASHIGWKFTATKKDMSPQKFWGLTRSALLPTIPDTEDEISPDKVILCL
T1 sequence (Q16531 whole entry partner): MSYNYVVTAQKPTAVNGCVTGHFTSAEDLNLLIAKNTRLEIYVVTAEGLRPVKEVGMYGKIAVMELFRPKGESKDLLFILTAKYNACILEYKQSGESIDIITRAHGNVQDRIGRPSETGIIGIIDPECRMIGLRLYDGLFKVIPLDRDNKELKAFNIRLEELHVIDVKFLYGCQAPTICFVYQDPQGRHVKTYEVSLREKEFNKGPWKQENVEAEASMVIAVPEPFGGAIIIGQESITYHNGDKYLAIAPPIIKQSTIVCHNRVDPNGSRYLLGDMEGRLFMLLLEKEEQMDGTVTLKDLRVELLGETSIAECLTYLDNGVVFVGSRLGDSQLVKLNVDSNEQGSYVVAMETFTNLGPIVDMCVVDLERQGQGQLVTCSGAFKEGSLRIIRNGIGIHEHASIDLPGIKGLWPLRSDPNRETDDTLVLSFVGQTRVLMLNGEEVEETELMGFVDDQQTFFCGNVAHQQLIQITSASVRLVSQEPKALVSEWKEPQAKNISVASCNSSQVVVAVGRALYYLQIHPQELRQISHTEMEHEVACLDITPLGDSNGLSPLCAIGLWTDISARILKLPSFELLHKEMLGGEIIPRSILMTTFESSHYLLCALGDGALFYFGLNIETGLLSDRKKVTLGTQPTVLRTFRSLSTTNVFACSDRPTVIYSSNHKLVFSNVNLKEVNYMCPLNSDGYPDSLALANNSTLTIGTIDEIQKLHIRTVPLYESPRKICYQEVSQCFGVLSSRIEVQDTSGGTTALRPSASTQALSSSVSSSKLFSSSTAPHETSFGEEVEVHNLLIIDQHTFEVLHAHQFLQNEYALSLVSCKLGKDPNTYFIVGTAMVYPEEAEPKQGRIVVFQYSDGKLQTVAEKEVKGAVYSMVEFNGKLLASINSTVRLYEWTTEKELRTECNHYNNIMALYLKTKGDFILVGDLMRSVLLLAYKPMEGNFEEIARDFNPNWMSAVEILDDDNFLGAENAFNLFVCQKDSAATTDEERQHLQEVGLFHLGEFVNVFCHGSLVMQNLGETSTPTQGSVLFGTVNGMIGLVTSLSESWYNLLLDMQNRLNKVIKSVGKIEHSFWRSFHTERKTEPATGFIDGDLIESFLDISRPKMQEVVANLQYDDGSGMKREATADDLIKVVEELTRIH
Chain of IKZF2 Helios (Q9UKS7 whole entry): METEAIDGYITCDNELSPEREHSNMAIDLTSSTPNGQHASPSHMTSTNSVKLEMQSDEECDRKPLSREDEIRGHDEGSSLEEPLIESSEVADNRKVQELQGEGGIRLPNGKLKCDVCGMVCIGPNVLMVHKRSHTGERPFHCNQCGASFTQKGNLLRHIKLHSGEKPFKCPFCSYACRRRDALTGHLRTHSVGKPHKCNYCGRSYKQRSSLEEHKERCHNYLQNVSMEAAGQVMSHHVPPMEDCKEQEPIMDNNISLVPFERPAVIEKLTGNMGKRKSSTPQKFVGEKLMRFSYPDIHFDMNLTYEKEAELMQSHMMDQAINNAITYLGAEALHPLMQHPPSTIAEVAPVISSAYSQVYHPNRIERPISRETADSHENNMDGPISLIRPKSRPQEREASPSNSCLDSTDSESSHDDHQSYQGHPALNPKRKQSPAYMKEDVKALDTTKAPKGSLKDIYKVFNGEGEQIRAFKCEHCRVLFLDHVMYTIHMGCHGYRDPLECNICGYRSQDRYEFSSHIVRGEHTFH
Chain of IKZF2 Helios (Q96SW2 whole entry): as the sequence (Q96SW2 whole entry) above
Chain of IKZF2 Helios (Q16531 whole entry partner): as the sequence (Q16531 whole entry partner) above
Chain of IKZF3 Aiolos (Q9UKT9 whole entry): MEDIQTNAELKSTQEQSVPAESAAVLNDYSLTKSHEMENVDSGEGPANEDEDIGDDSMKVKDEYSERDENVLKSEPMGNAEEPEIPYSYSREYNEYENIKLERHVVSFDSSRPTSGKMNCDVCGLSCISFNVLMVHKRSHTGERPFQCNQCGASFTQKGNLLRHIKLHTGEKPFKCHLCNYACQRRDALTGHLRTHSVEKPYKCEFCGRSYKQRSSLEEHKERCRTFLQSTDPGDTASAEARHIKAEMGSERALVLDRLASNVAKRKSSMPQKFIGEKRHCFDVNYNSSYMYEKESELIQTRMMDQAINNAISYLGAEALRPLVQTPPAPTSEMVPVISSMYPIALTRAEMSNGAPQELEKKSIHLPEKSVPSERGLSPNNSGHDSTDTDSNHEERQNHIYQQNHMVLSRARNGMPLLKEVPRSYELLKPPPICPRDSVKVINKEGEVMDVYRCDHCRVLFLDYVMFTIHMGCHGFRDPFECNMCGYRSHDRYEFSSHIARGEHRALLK
Chain of IKZF3 Aiolos (Q96SW2 whole entry): as the sequence (Q96SW2 whole entry) above
Chain of IKZF3 Aiolos (Q16531 whole entry partner): as the sequence (Q16531 whole entry partner) above

On to `Nc1nc(-c2ccc3c(c2F)CN(C2CCC(=O)NC2=O)C3=O)ccc1CN1CC(C2CCC(F)(F)CC2)C1` (centres unmarked) [Example 1, 3-(5-(6-Amino-5-((3-(4,4-difluorocyclohexyl)azetidin-1-yl)methyl)pyridin-2-yl)-4-fluoro-1-oxoisoindolin-2-yl) piperidine-2,6-dione], for which the Dmax was 62% on IKZF1 Ikaros [1] (Regulatory T cell, read-out: IKZF1 Ikaros max % deg. observed); 69% on IKZF1 Ikaros [2] (human, read-out: IKZF1 Ikaros max % deg. observed); 48% at IKZF3 Aiolos (human, read-out: IKZF3 Aiolos max % deg. observed); 96% at IKZF2 Helios (Regulatory T cell, read-out: IKZF2 Helios max % deg. observed). The DC50 at IKZF1 Ikaros [1] (setting [3]) was 194 nM; on IKZF1 Ikaros [2] (setting [3]) it was 90.9 nM; at IKZF3 Aiolos (setting [3]), greater than 10000 nM; at IKZF2 Helios (setting [3]) it was 0.1 nM.
